This is an account of results in patent US9949968B2, “Diarylalkylamine REV-ERB antagonists and their use as medicaments” (FONDAZIONE ISTITUTO ITALIANO DI TECNOLOGIA, priority 2013, dated 2018).

Common to all, as to assay type: cell-based
Experiment [1] relates to HCT116. The experiment can be described thus: Growth inhibition of different tumor cell lines: HCT116. Conditions: Homo sapiens, HCT-116; HCT116, colorectal carcinoma, p53 Wild-Type. The text has this: (§1) The CyQUANT® Cell Proliferation Assay Kit (Invitrogen) was used, an assay that has a linear detection range extending from 50 or fewer to at least 250,000 cells.
(§2) Frozen cells are simply thawed and lysed by addition of a buffer containing the CyQUANT®.
(§3) Data were collected and analyzed with Prism 5 software to calculate the growth inhibition curve.
(§4) In particular, values obtained from the DMSO treated cells was set at 100% of growth. Data from treatment of cells with serial dilutions of the compounds were normalized versus the DMSO group and fitted using a four-parameter dose-response curve.
(§5) GI50 was calculated as the concentration of compound that gives a response half way between bottom and top plateaus of the fitted curve.
(§6) To test if the growth inhibition activity of the compound of example 1 was limited to breast cancer BT-474 cells, or if it could be generalized in other tumor cells from different tissues, the GI50 of compound of example 1 was tested in several cell lines.

Experiment [2] has as its system HuH7. The experiment can be described thus: Growth inhibition of different tumor cell lines: HuH7. Conditions: Homo sapiens, Huh-7; HuH7, liver hepatocellular carcinoma, p53 mutant protein.
Excerpt: as §1, §2, §3, §4, §5, §6

Experiment [3] concerns HCT116-E6. The experiment can be described thus: Growth inhibition of different tumor cell lines: HCT116-E6. Conditions: HCT116-E6, colorectal carcinoma, p53 no protein expression.
Excerpt: as §1, §2, §3, §4, §5, §6

The subject of experiment [4] is HepG2. The experiment is described as follows: Growth inhibition of different tumor cell lines: HepG2. Particulars: Homo sapiens; HepG2, liver hepatocellular carcinoma, p53 Wild-Type.
Excerpt: as §1, §2, §3, §4, §5, §6

Experiment [5] concerns WiDr. The experiment can be described thus: Growth inhibition of different tumor cell lines: WiDr. Conditions: Homo sapiens, colon adenocarcinoma, p53 mutant protein.
Excerpt: as §1, §2, §3, §4, §5, §6

Experiment [6] deals with SK-Hep1. The experiment is described as follows: Growth inhibition of different tumor cell lines: SK-Hep1. Conditions: Homo sapiens; SK-Hep1, liver adenocarcinoma, p53 Wild-Type.
Excerpt: as §1, §2, §3, §4, §5, §6

Experiment [7] deals with Colo-205. The experiment is described as follows: Growth inhibition of different tumor cell lines: Colo-205. Conditions: Homo sapiens; Colo-205, colon, metastatic site: ascites, p53 mutant protein.
Excerpt: as §1, §2, §3, §4, §5, §6

For experiment [8], the system named is endogenous REV-ERB mediated transcription. The experiment is described as follows: Gene expression analysis (qPCR) of endogenous REV-ERB target genes in BT-474 cells. Particulars: 24 h, different doses, qPCR normalised to Gapdh. As for the experimental part:
Gene Expression Analysis of Endogenous REV-ERB Target Genes after Treatment with the Compound of Example 1
In order to test the effect of the compound of example 1 on the endogenous REV-ERB mediated transcription, BT-474 cells were treated 24 h with different doses of the compound of the example 1 and then processed for RNA extraction.
Total RNA was extracted with Trizol reagent (Invitrogen) according to the manufacture instruction. One microgram of RNA was retro-transcribed with VILO retrotranscription mix (Invitrogen) and subsequently analyzed by qPCR as described in Grimaldi et al., Cell Metab., 2010; 12:509-520.
The REV-ERB targets Per1, Bmal1, Nampt, and p21 were analyzed. Gapdh gene was used to normalize the data, while Hprt1 gene was used as independent REV-ERB gene (negative control).
The results obtained are illustrated in FIG. 1 Values are presented as Relative expression, calculated versus the normalizing gene Gapdh, and shown as mean±SEM from at least 3 independent experiments. The expression of the REV-ERBs independent gene, Hprt1, was used as negative control.

For experiment [9], the system named is REV-ERB. The experiment can be described thus: Luciferase-based assay of REV-ERB mediated transcriptional regulation (RevRE/SV40-CLuc reporter in HEK-293 cells). Particulars: HEK-293 cells transfected with RevRE reporter and REV-ERBα and/or β; read 24 h post-transfection; read-out: REV-ERB antagonism EC50. The text has this: Luciferase-Base Assay to Assess the Activity of the Compounds on REV-ERB Mediated Transcriptional Regulation
In order to assess the effect of the compounds of the invention on REV-ERB activity the inventors exploited the ability of REV-ERB to repress gene transcription of a specific DNA cis-element. In fact, the DNA binding domain (DBD) of REV-ERB recognizes specific DNA sequences (called RevREs=Rev-erb Responsive Elements) which contains an AGGTCA motif linked in 5′ to an A/T rich sequence harboring the following consensus: A/T A A/T N T (Harding et al., Mol Cell Biol., 1993; 13:3113).
Therefore, two repetitions of the RevRE consensus AGAATGTAGGTCA (SEQ ID NO: 13) upstream a SV40 promoter driving the expression of a reporter gene were cloned. As reported, the luciferase enzyme from the ostracod Cypridina noctiluca was adopted. […] Cypridina luciferase (CLuc) is secreted from cells by virtue of its natural signal peptide and its luminescence can be measured from the supernatant of transfected cells. Therefore, cell lysis is not necessary. Secreted CLuc is a very stable protein. Because of this property, the activity measured from the supernatant reflects the amount of protein accumulated up to the time of sampling. Multiple samples can therefore be obtained from the same transfected cells, allowing an easy set-up of time-course experiments. In addition, the direct use of the supernatant makes the system easily prone to automation for High Throughput Screening.
In order to normalize the experiment for the transfection efficiency, it was used a plasmid containing a SV40 promoter driving the expression of a secreted form of human alkaline phosphatase (SEAP), which enzymatic activity in the supernatant can be measured with chemiluminescence substrates.
To be able to rule out false-positive, for example due to the interference of the compounds to be tested with the fluorescence and/or chemiluminescence reactions, it was used as control a mutated version of the RevRE (GAGCCCGTAGGTCA) (SEQ ID NO: 14) that is no longer able to bind REV-ERB DBD (Harding et al., Mol Cell Biol., 1993; 13:3113).
The person skilled in the art will appreciate that an agonist will improve the ability of REV-ERB to repress the transcription, reducing the luminescence signal, while an antagonist will produce the opposite effect.
For the assay, HEK-293 cells were transfected with the reporter vectors and a plasmid expressing the REV-ERBα and/or β protein. After 6 h from transfection, the medium was replaced with fresh medium containing different doses of the compounds or vehicle (DMSO). After 24 h post-transfection, the supernatant was analyzed for the secreted luciferase and AP activity according to the manufacture instruction. Data normalized as fold activation versus vehicle (DMSO) were fitted using a four-parameter dose-response curve to calculate the EC50 of the different compounds.
(§7) The different compounds were tested for their ability to inhibit the growth of the tumorigenic breast cancer cells BT-474 and for their antagonistic activity toward REV-ERB transcriptional repression, as described in the biological method section.
For the cell growth inhibition (GI) the growth inhibition 50 (GI50) and the growth inhibition max (GImax) are reported. […] The bottom plateaus of the curve was used to calculate the Growth Inhibition max (GImax), defined as the percentage of the reduction of cells after 48 h upon a saturating dose of the administered compound. Compounds with a GI50<100 μM were also tested for their antagonistic activity toward REV-ERB. […]

For experiment [10], the system named is Hep3B. The experiment can be described thus: Growth inhibition of different tumor cell lines: Hep3B. Particulars: Homo sapiens, liver hepatocellular carcinoma, p53 no protein expression.
Excerpt: as §1, §2, §3, §4, §5, §6

For experiment [11], the system named is tumorigenic breast cancer cells BT-474. The experiment is described as follows: Growth inhibition assay (CyQUANT Cell Proliferation Assay) in BT-474 cells. Particulars: Homo sapiens.
Excerpt: Given that REV-ERB target genes include several metabolic regulators, such as Pgc-1α and Nampt, it was decided to test the cell proliferation with a method that is independent from the metabolic state of the cell.
as §1, §2
For the assay, tumorigenic breast cancer cells BT-474 cells were seeded at 2500 cells per well in a 96-well plate and incubated over-night at 37° C. Then, fresh medium containing different concentration of the compounds or vehicle (DMSO) was added and cells were growth 48 h at 37° C. Finally, cells were frozen at […] and then processed according to the manufacture instructions. A minimum of triplicate data for each dose was used for the analysis.
as §3, §4, §5
The bottom plateaus of the fitted curve was used to calculate the Growth Inhibition max (GImax), defined as the percentage of the reduction of cells after 48 h upon a saturating dose of compound.
as §7
For the cell growth inhibition (GI) the growth inhibition 50 (GI50) and the growth inhibition max (GImax) are reported. […] The bottom plateaus of the curve was used to calculate the Growth Inhibition max (GImax), defined as the percentage of the reduction of cells after 48 h upon a saturating dose of the administered compound. Compounds with a GI50<100 μM were also tested for their antagonistic activity toward REV-ERB. For these compounds, the EC50 value is provided, calculated as the concentration of compound that gives a response half between the bottom (expression of the reporter in absence of compound) and the top (expression of the reporter at saturating doses of compound) plateaus of the fitted curves (see biological method section for a description of the reported assay). n.d.=not determined; n.t.=not tested.

In experiment [12] the test system is CaCO2. The experiment can be described thus: Growth inhibition of different tumor cell lines: CaCO2. Particulars: Homo sapiens, Caco-2; CaCO2, colorectal adenocarcinoma, p53 no protein expression.
Excerpt: as §1, §2, §3, §4, §5, §6

Counter-ions that a name gives are not always drawn.

For orientation: GI50 means the concentration giving 50% growth inhibition. What is called EC50 is the concentration giving half of the maximal effect.

For `CN1CCN(Cc2cc(CNC3(c4ccccc4F)CCCC3)ccc2O)CC1` [Example 1, 4-[[[1-(2-Fluorophenyl)cyclopentyl]amino]methyl]-2-[(4-methylpiperazin-1-yl)methyl]phenol trihydrochloride], the GI50 in experiment [1] stood at 19 µM; in [2], 8 µM; in experiment [3] it was 20 µM; in experiment [4], 10 µM; in experiment [5], 12 µM; in [6], 50 µM. Besides, the GI50 in experiment [7] worked out at 30 µM; in experiment [10], 10 µM; in experiment [11] (48 h, CyQUANT, read-out: Cell Growth Inibition GI50), 18 µM; in experiment [12], 18 µM. The “expression of Bmal1 (REV-ERB target, circadian regulation)” value in experiment [8] was “induced in a dose-dependent manner”. Moreover, the “expression of Nampt (REV-ERB target, metabolism)” value in experiment [8] is reported as “induced in a dose-dependent manner”. For the same compound, in experiment [8], the “expression of Per1 (REV-ERB target, circadian regulation)” value is given as “induced in a dose-dependent manner”. Further, the “expression of p21 (REV-ERB target, cell cycle)” value in experiment [8] is “induced in a dose-dependent manner”. For the same compound, the “expression of the REV-ERB independent gene Hprt1 (negative control)” value in experiment [8] is recorded as “negligible effects”. For the same compound, the EC50 in experiment [9] was determined as 25 µM. Also, in [11] (reduction of cells after 48 h at saturating dose, read-out: Cell Growth Inibition GImax), the Emax amounted to 72%.
